Reference: the OPERA property sets (Mansouri et al. 2018)

Details: not given

Going from `Cc1ccccc1` to `Fc1ccccc1I`, the boiling point rises from 111 °C to 189 °C.

Compared with `CCCCC#CCCCCC`, `C=CCCCCC` is lower in boiling point: 198 °C for the first, 93.6 °C for the second.

Going from `ClC(Cl)C(Cl)(Cl)C(Cl)(Cl)Cl` to `FC(F)(F)C(F)(F)C(Cl)Cl`, the boiling point falls from 248 °C to 51.1 °C.

First: CCN(CC)CCCN
Second: OCCCCCO
The boiling point of the first is lower: 168 °C for the first, 239 °C for the second.

Compared with `CCc1ccc(C)cc1C`, `COc1cc(C)ccc1C` is higher in boiling point: 188 °C for the first, 194 °C for the second.

Going from `C=CCc1cc(OC)c2c(c1)OCO2` to `Cc1cc(=O)cc(C)o1`, the boiling point falls from 276 °C to 251 °C.

Going from `Cc1cccc(C)c1N(C)C` to `Cc1cc2ccoc2cc1C`, the boiling point rises from 196 °C to 221 °C.

First: Cc1ccc(C(F)(F)F)cc1
Second: COc1ccc(C#N)cc1
The boiling point of the first is lower: 129 °C for the first, 256 °C for the second.

First: CN(C)C=O
Second: CC(=O)C(C)(C)C(C)=O
The boiling point of the first is lower: 153 °C for the first, 173 °C for the second.

Going from `O=C(Cl)c1ccc(C(=O)Cl)cc1` to `Oc1ccccc1Br`, the boiling point falls from 258 °C to 194 °C.

Going from `c1ccc(C2OCCCO2)cc1` to `C=Cc1cccnc1`, the boiling point falls from 253 °C to 162 °C.

Going from `NC(=O)CCl` to `C=CCCCCCCCCC(=O)OC`, the boiling point rises from 225 °C to 248 °C.

Going from `Oc1ccc(O)c(Cl)c1` to `CC(C)c1ccc(C(C)C)c(C(C)C)c1`, the boiling point falls from 263 °C to 244 °C.

For `CC(Br)(Br)CBr`, the boiling point was 190 °C.

First: Cc1ccccc1
Second: CN(C)C=O
The log10 Henry constant (atm·m³/mol) of the first is higher: -2.18 for the first, -7.13 for the second.

`FC(F)(F)C(F)(F)C(Cl)Cl` showed a log10 Henry constant (atm·m³/mol) of -0.299.

Compared with `Cc1ccccc1`, `CCc1ccc(C)cc1C` is higher in log10 biodegradation half-life (days): 0.301 for the first, 0.602 for the second.

Compared with `Cc1ccccc1`, `CC1=C(C(=O)Nc2ccccc2)SCCO1` is lower in log10 vapour pressure (mmHg): 1.45 for the first, -6.82 for the second.

First: C=CCCCCC
Second: OCCCCCO
The log10 vapour pressure (mmHg) of the first is higher: 1.77 for the first, -2.41 for the second.

Compared with `CCc1ccc(C)cc1C`, `CCOC(=O)CCCOc1ccc(Cl)cc1C` is lower in log10 vapour pressure (mmHg): -0.0685 for the first, -5.84 for the second.

Compared with `COC(F)(F)C(F)(F)C(F)(F)F`, `FC(F)(F)C(F)(F)C(Cl)Cl` is lower in log10 vapour pressure (mmHg): 2.75 for the first, 2.38 for the second.

Going from `Nc1ccccc1-c1ccccc1N` to `CCCCCCCCSC(=O)Oc1cc(Cl)nnc1-c1ccccc1`, the log10 vapour pressure (mmHg) falls from -5.57 to -9.01.

First: CN(C)C=O
Second: N#Cc1c[nH]cc1-c1cccc2c1OC(F)(F)O2
The log10 vapour pressure (mmHg) of the first is higher: 0.588 for the first, -8.53 for the second.

First: Cc1ccccc1
Second: Fc1ccccc1I
The melting point of the first is lower: -94.9 °C for the first, -41.5 °C for the second.

Going from `CCCCC#CCCCCC` to `C=CCCCCC`, the melting point falls from -74.1 °C to -120 °C.

Going from `Cc1nc(C)c(Cl)c(O)c1Cl` to `Cc1cc2nc[nH]c2cc1C`, the melting point falls from 320 °C to 206 °C.

Compared with `CCCCCCCCCCCCCCCCCCCCCCCCCCCC(=O)O`, `CCCCCCCCCCCCCCCCC(=O)OCC` is lower in melting point: 90.9 °C for the first, 28 °C for the second.

Going from `ON=C1CCCCC1=NO` to `O=NN(CCCl)C(=O)NC1CCCCC1`, the melting point falls from 192 °C to 89 °C.

Compared with `ClC(Cl)C(Cl)(Cl)C(Cl)(Cl)Cl`, `FC(F)(F)C(F)(F)C(Cl)Cl` is lower in melting point: 29.4 °C for the first, -94 °C for the second.

Going from `CCc1ccc(C)cc1C` to `Cc1cccc(C)c1N(C)C`, the melting point rises from -62.9 °C to -36 °C.

First: Nc1ccccc1-c1ccccc1N
Second: OB(c1ccccc1)c1ccccc1
The melting point of the first is higher: 81 °C for the first, 57.5 °C for the second.

Going from `OCCCCCO` to `C=CCCCCCCCCC(=O)OC`, the melting point falls from -18 °C to -27.5 °C.

First: O=C(O)Cc1ccc(F)cc1
Second: O=C(O)CCc1ccc(O)cc1
The melting point of the first is lower: 86 °C for the first, 131 °C for the second.

`COc1ccc(C#N)cc1` and `CCCCCCCOc1ccc(O)cc1` are the same in melting point: 61.5 °C for the first, 61.5 °C for the second.

First: O=c1cc(CN2CCOCC2)c2cc(O)c(O)cc2o1
Second: CCn1cc(C(=O)O)c(=O)c2cnc(N3CCCC3)nc21
The melting point of the first is lower: 232 °C for the first, 315 °C for the second.

Going from `C=C(C)[C@H]1Cc2c(cc(O)c3c2O[C@@H]2COc4cc(OC)c(OC)cc4[C@@H]2C3=O)O1` to `COc1cc([C@@H]2c3cc4c(cc3C(O[C@@H]3O[C@@H]5CO[C@@H](C)O[C@H]5[C@H](O)[C@H]3O)C3COC(=O)[C@@H]32)OCO4)cc(OC)c1O` (stereo partly specified), the melting point rises from 195 °C to 244 °C.

First: CCCCCCCCSC(=O)Oc1cc(Cl)nnc1-c1ccccc1
Second: CCOC(=O)CCCOc1ccc(Cl)cc1C
The melting point of the first is higher: 27 °C for the first, -1 °C for the second.

First: CN(C)C=O
Second: CN(C)CCc1ccc(O)cc1
The melting point of the first is lower: -60.4 °C for the first, 118 °C for the second.

Compared with `O=C(Cl)c1ccc(C(=O)Cl)cc1`, `O=C(c1ccccc1)c1ccc(Cl)c([N+](=O)[O-])c1` is higher in melting point: 83.5 °C for the first, 105 °C for the second.

First: O=C(Cl)N(c1ccccc1)c1ccccc1
Second: CC(=O)Nc1ccc(OC(=O)c2ccccc2O)cc1
The melting point of the first is lower: 83 °C for the first, 187 °C for the second.

Going from `O=C(Nc1ccc(Cl)c(Cl)c1)c1cc(Cl)ccc1O` to `Oc1ccc(O)c(Cl)c1`, the melting point falls from 247 °C to 108 °C.

Compared with `CO[C@H]1[C@H](O)[C@H](O[C@H]2CC[C@@]3(C)[C@H](CC[C@@H]4[C@@H]3CC[C@]3(C)[C@@H](C5=CC(=O)OC5)CC[C@]43O)C2)O[C@@H](C)[C@@H]1O`, `C=C(C)[C@@H]1CC[C@]2(CO)CC[C@]3(C)[C@H](CC[C@@H]4[C@@]5(C)CC[C@H](O)C(C)(C)[C@@H]5CC[C@]43C)[C@@H]12` is higher in melting point: 221 °C for the first, 250 °C for the second.

First: C[C@]12CC[C@@H]3c4ccc(O)cc4CC[C@H]3[C@@H]1CCC2=O
Second: CC(=O)C1CCc2ccccc2C1=O (stereo unspecified)
The melting point of the first is higher: 260 °C for the first, 56 °C for the second.

Compared with `c1ccc(C2OCCCO2)cc1`, `CC1=C(C(=O)Nc2ccccc2)SCCO1` is higher in melting point: 41 °C for the first, 91.5 °C for the second.

First: CC(=O)C(C)(C)C(C)=O
Second: NC(=O)CCl
The melting point of the first is lower: 19 °C for the first, 121 °C for the second.

Going from `Oc1ccccc1Br` to `Clc1cccc2nccc(Cl)c12`, the melting point rises from 5.6 °C to 118 °C.

Compared with `N#Cc1c[nH]cc1-c1cccc2c1OC(F)(F)O2`, `O=C1c2cccc([N+](=O)[O-])c2C(=O)c2cccc([N+](=O)[O-])c21` is higher in melting point: 200 °C for the first, 385 °C for the second.

First: N#Cc1cc(I)c([O-])c(I)c1.[Na+]
Second: Cc1cc(=O)cc(C)o1
The melting point of the first is higher: 360 °C for the first, 132 °C for the second.

For `Cc1ccccc1`, the ready biodegradability was “readily biodegradable”.
For `OCCCCCO`, the ready biodegradability was “readily biodegradable”.
With `CN(C)C=O` the ready biodegradability was “readily biodegradable”.
With `Oc1ccccc1Br` the ready biodegradability was “not readily biodegradable”.
With `CC1=C(C(=O)Nc2ccccc2)SCCO1` the ready biodegradability was “readily biodegradable”.

`CN(C)C=O` gave a log10 Koa of 4.38.

First: COc1ccc(NC(=O)N(C)C)cc1
Second: CC1=C(C(=O)Nc2ccccc2)SCCO1
The log10 Koc (L/kg) of the first is lower: 1.4 for the first, 2.41 for the second.

Same assay, conditions: fish

First: Clc1cc(-c2cc(Cl)c(Cl)c(Cl)c2Cl)cc(Cl)c1Cl
Second: COc1ccc(Cl)c(Cl)c1Cl
The log10 biotransformation half-life (days) of the first is higher: 2.32 for the first, 1.4 for the second.

Compared with `c1ccc2cc3c(ccc4c5ccccc5ccc34)cc2c1`, `Oc1ccccc1Br` is lower in log10 biotransformation half-life (days): 0.58 for the first, -0.24 for the second.

Compared with `O=C1CCCCCCCCCCCN1`, `CN(C)C=O` is lower in log10 BCF: 0.41 for the first, -0.1 for the second.

First: COc1ccc(Cl)c(Cl)c1Cl
Second: Cc1ccccc1
The log10 BCF of the first is higher: 2.96 for the first, 0.92 for the second.

With `Oc1ccccc1Br` the log10 BCF was 1.52.
